The values that follow come from ChEMBL document CHEMBL2069192, “Synthesis of 3-(1-alkyl/aminoalkyl-3-vinyl-piperidin-4-yl)-1-(quinolin-4-yl)-propan-1-ones and their 2-methylene derivatives as potential spermicidal and microbicidal agents” (Bioorg Med Chem Lett, 2012).

In brackets after ≈: the same amount, converted by molar mass. Activity calls are given as the source filed them.

As a reminder, the EC50 is the concentration that produces a half-maximal response. For orientation: MIC means the smallest concentration in the dilution series that meets the test's criterion for growth inhibition.

Experiment [1] has as its system HeLa. Nature of the experiment: Cytotoxicity against human HeLa cells by MTT assay. The experiment is classed as cell-based.
The nature of experiment [2]: Antimicrobial activity against Lactobacillus jensenii.
In experiment [3] the test system is Trichomonas vaginalis. Briefly: Antimicrobial activity against clinical isolate of Trichomonas vaginalis. The experiment is classed as functional.
Experiment [4] concerns Trichomonas vaginalis. Nature of the experiment: Antimicrobial activity against Trichomonas vaginalis ATCC 25258. The experiment is classed as functional.
Experiment [5] relates to Spermatozoa. Briefly: Spermicidal activity against human spermatozoa at 10 mg/ml by modified sander-cramer assay. The experiment is classed as functional.

For `C=C[C@H]1CN2CC[C@H]1C[C@@H]2[C@@H](O)c1ccnc2ccccc12` [CINCHONINE], the EC50 in experiment [1] was 697 µg/mL (≈ 2370 µM); in experiment [2], 428 µg/mL (≈ 1450 µM). In addition, the MIC result in experiment [3] and in experiment [4] was “inactive” throughout.
Turning to `Cc1ncc([N+](=O)[O-])n1CCO` [METRONIDAZOLE], the EC50 in experiment [1] and in experiment [2] was more than 1000 µg/mL in each case. Besides, the MIC in experiment [3] was determined as 2 µg/mL (≈ 11.7 µM); in experiment [4] it was 62.5 µg/mL (≈ 365 µM). Further, in experiment [5], the outcome was inactive.
Take `C=C[C@H]1CN(CC(C)C)CC[C@H]1CCC(=O)c1ccnc2ccccc12`: the result in experiment [5] was inactive.
As to `C=C[C@H]1CNCC[C@H]1CCC(=O)c1ccnc2ccccc12` [CINCHOTOXIN], the EC50 is more than 1000 µg/mL in experiment [1] and 449 µg/mL (≈ 1530 µM) in experiment [2]. Moreover, the MIC result in experiment [3] and in experiment [4] was “inactive” in each case.
As for `C=C[C@H]1CN(CCCCCCCC)CC[C@H]1CCC(=O)c1ccnc2ccccc12`, the outcome in experiment [5] was inactive.
Same read-out and setting: under `C=C[C@H]1CN(CCCCCC)CC[C@H]1CCC(=O)c1ccnc2ccccc12` stands “inactive”.
Take `C=C[C@H]1CN(CCCCC)CC[C@H]1CCC(=O)c1ccnc2ccccc12.O=C(O)C(O)C(O)C(=O)O`: the EC50 in experiment [1] was determined as 19.1 µg/mL; in experiment [2], 76.3 µg/mL. The results for the MIC in experiment [3] and in experiment [4] were 1.5 µg/mL and 3.12 µg/mL, respectively.
The corresponding values for `C=C[C@H]1CN(CCC)CC[C@H]1CCC(=O)c1ccnc2ccccc12.O=C(O)C(O)C(O)C(=O)O` are 276 µg/mL, 526 µg/mL, 25 µg/mL and 100 µg/mL.
Consider `C=C[C@H]1CN(CCCC)CC[C@H]1CCC(=O)c1ccnc2ccccc12`, for which, in experiment [5], the outcome was inactive.
On to `CCCCCCCCCc1ccc(OCCOCCOCCOCCOCCOCCOCCOCCOCCO)cc1` [NONOXYNOL 9], for which the EC50 worked out at 33.2 µg/mL (≈ 53.8 µM) in experiment [1] and 32.5 µg/mL (≈ 52.7 µM) in experiment [2]. Besides, the MIC in experiment [3] and in experiment [4] was 37.5 µg/mL (≈ 60.8 µM) in each case.
On to `C=C[C@H]1CN(CCCC)CC[C@H]1CC(=C)C(=O)c1ccnc2ccccc12.O=C(O)C(O)C(O)C(=O)O`, for which the values for the EC50 in experiment [1] and in experiment [2] were 138 µg/mL and 321 µg/mL, respectively. The values for the MIC in experiment [3] and in experiment [4] were 3.12 µg/mL and 50 µg/mL, respectively.
Turning to `C=C[C@H]1CN(CC)CC[C@H]1CCC(=O)c1ccnc2ccccc12`, the outcome in experiment [5] was inactive.
For `C=C[C@H]1CN(CC)CC[C@H]1CC(=C)C(=O)c1ccnc2ccccc12.O=C(O)C(O)C(O)C(=O)O`, the EC50 in experiment [1] was found to be 133 µg/mL; in experiment [2] it was 685 µg/mL. Moreover, the MIC came out at 12.5 µg/mL in experiment [3] and 50 µg/mL in experiment [4].
Take `C=C[C@H]1CN(CCCCC)CC[C@H]1CC(=C)C(=O)c1ccnc2ccccc12.O=C(O)C(O)C(O)C(=O)O`: the EC50 in experiment [1] stood at 104 µg/mL; in experiment [2] it was 130 µg/mL. The minimal inhibitory concentration (MIC) in experiment [3] worked out at 12.5 µg/mL; in experiment [4], 25 µg/mL.
